Measurements from patent US20250032624A1, “SMALL MOLECULE DEGRADATION METHODS FOR TREATING ALS/FTD” (University of Florida Research Foundation, Incorporated, priority 2021, published 2025).

Assays:
β-actin = β-actin abundance in brain of -/-PWR500 (WT) mice; format: in vivo, mouse
Method: A total of 20 age- and gender-matched mice (12 +/+PWR500 [5 Male and 7 Female] and 8 WT [4 Male and 4 Female]), ranging from 18-21 weeks old were used in therapeutic efficacy studies (Table 4). Mice were treated with a single bolus injection of 33 nmol of compound 2 formulated in 1% (v/v) DMSO/99% water, administered by an intracerebroventricular injection (ICV). Three weeks post injection, mice were euthanized, and tissue was harvested for study.
Postmortem brain tissue was harvested and sliced along the sagittal plane at the midline. The left hemisphere was frozen for RNA and protein analysis. Frozen brain tissue was homogenized in 300 μL Tris-EDTA buffer with a 1:5 w/v ratio of 2× protease and phosphatase inhibitors, as was done for RNA analysis of the tissue. Half of the homogenized tissue (150 μL) was mixed with 2× Lysis Buffer (50 mM Tris, pH 7.4, 250 mM NaCl, 2% (v/v) Triton X-100, and 4% (w/v) SDS) and sonicated at 1 second on/off intervals at 30% for a total of 15 seconds. Detergent from was removed using a Pierce™ Detergent Removal Spin Column 0.5 mL (Thermo Scientific) according to the manufacturer's protocol. Protein concentrations were then measured by BCA assay (Pierce Biotechnology) and poly(GP) was measured as described above for the electrochemical luminescent sandwich immunoassay.

[1] = tested on: r(G4C2)^exp-containing C9orf72 transcript; test: C9orf72 transcript RT-qPCR in c9ALS/FTD iPSNs; format: cell-based, human
Method: Differentiated motor neurons (iPSNs) were derived from the iPSCs listed in the previous section. The differentiation process was based on a previously reported method with slight modifications^33,34. Briefly, iPSCs were plated into Matrigel-coated 100 mm dishes (30-40% confluence). Neuroepithelial induction was performed by replacing the Basal medium with Stage 1 medium [47.5% IMDM (Iscove's Modified Dulbecco's Medium), 47.5% F12 medium, 1% NEAA (Non-Essential Amino Acids) (Life Technologies), 2% B27 (Invitrogen), 1% N2 (Invitrogen), 1% PSA (Penicillin-Streptomycin-Amphotericin), 0.2 μM LDN193189 (Stemgent), 10 μM SB431542 (STEMCELL Technologies) and 3 μM CHIR99021 (Sigma-Aldrich)]. The medium was changed daily for 6 days, after which cells were detached from plates using Accutase (STEMCELL Technologies). Cells were seeded into 6-well plates (1.5×10^6 cells/well) in 3 mL of Stage 2 medium [Stage 1 medium supplemented with 0.1 μM All-trans RA (Sigma-Aldrich) and 1 μM SAG (Cayman Chemicals)]. Cells were maintained in Stage 2 medium, with daily medium changes, through Day 11 of the differentiation process. On Day 12, the Stage 2 cell medium was removed and replaced with Stage 3 medium [47.5% IMDM, 47.5% F12 medium, 1% NEAA, 2% B27, 1% N2, 1% PSA, 0.1 μM Compound E (Millipore; Catalog #: 565790), 2.5 μM DAPT (Sigma-Aldrich), 0.1 μM db-cAMP (Millipore), 0.5 μM All-trans RA, 0.1 μM SAG, 20 ng/mL ascorbic acid, 10 ng/mL BDNF (STEMCELL Technologies), and 10 ng/mL GDNF (STEMCELL Technologies)]. This medium was replaced every three days until the end of the differentiation process. Typically, a minimum of 18 days is required to produce immature differentiated motor neurons; 30 days of differentiation is the standard for producing mature differentiated spinal neurons. The cells can be maintained in medium for an additional 14-28 days after reaching maturation. […]
For iPSNs cells were differentiated, following the protocol outlined above, until Day 15. […] RNA was extracted as described above and the expression levels of C9orf72 variants was determined by RT-qPCR and normalized to GAPDH. […]

CCOC(=O)C1=C(Nc2ccccc2)S/C(=C\c2ccc(OCCOCCOCCOCCNC(=O)CCCOc3ccc4c(c3)c3cc5c(C(=O)N[C@H](C)CN(C)C)nccc5c(C)c3n4C)c(O)c2)C1=O [ALS Compound Formula I]
β-actin abundance (β-actin): no reduction
exon 1b transcript abundance [1]: unaffected
decrease in C9orf72 exon 2-3 abundance ([1]; 500 nM): ~40%
decrease in C9orf72 intron 1 levels ([1]; 500 nM): ~50%
